In US20100273772A1, “Bisaryl Alkynylamides as Negative Allosteric Modulators of Metabotropic Glutamate Receptor 5 (MGLUR5)” (Wyeth LLC, priority 2009, published 2010) one finds IC50 and Ki data, which are given here for 28 compounds.

SMILES strings stand for the structures.

In experiment [1] the target is T1, metabotropic glutamate receptor 5 (Rattus norvegicus, UniProt P31424).
T1 construct: expressed in transfected cells; host or cells: HEK-293
The experiment in a line: FLIPR Calcium 3 fluorescence-based functional assay of intracellular calcium, mGluR5 antagonist activity. The experiment is classed as cell-based. The following applies: inhibition of glutamate (EC90, ~50 uM) stimulated calcium levels, mGluR5 HEK-293 cells; read-out: mGluR5 FLIPR MP Antagonist DR IC50. An excerpt: where [L]=concentration of free radioligand and Kd=dissociation constant of radioligand for the receptor. TITLE: Identification of metabotropic glutamate receptor 5 antagonists using a stable, sensitive fluorescence-based screening system PURPOSE: The aim of the research presented here was to develop a robust functional assay to measure changes in intracellular calcium, with the goal of identifying potent mGluR5 antagonists.
The FLIPR Calcium 3 Assay Kit is designed to work with many cell types, both adherent and non-adherent. Optimal cell conditions for the FLIPR Calcium 3 Assay Kit require the creation of a confluent cell monolayer before placing the plates in FLIPR or FlexStation. In general, we start with 50,000 mGluR5 HEK-293 cells/well for a 96-well plate. For adherent cells, seeding cells overnight with a plating volume of 100 μL/well worked for 96-well plates.
Remove cell plates from the incubator. Remove the supernatant medium. Add 180 ul of Loading Buffer to each well (for 96-well plates). HBSS buffer component B) pipette 100 mL of 10× Hank's Balanced Salt Solution and 20 mL of 1M Hepes buffer
Incubate cell plates for 1 hour at 37° C. and then keep the plates at room temperature until used.
After incubation, transfer the plates directly to FLIPR and begin the calcium assay as described in the FLIPR system manual. For a signal test, a starting average count of ˜10,000 is recommended. Recommended experimental setup parameters are as follows. Faster addition speeds can lead to better mixing of compounds and lower signal variance across the plate.
Test or reference compound is added to the 96-well plate (manually). […] Relative Fluorescence Units (RFUs) are recorded over a given time period (stated above) depending on the platform system used.
For antagonists, results are expressed as % inhibition of glutamate stimulated Calcium levels. IC50 values were calculated by Prism GraphPad using a 4-parameter logistic equation. IC50 values are calculated using GraphPad by fitting to a 1 site-model.
Background: Calcium assays in cells follow changes in intracellular calcium, usually with a dye or a luminescent sensor.

Another experiment has as its target T2, rat mGluR5 receptor (Rattus norvegicus, UniProt P31424).
T2 construct: expressed in transfected cells; host or cells: HEK-293
Kind of experiment: [3H]-MPEP binding HEK-293 cell membranes expressing a rat mGluR5 receptor. The following applies: displacement of 4 nM [3H]-MPEP, HEK-293 cell membranes expressing rat mGluR5, 60 minute at room temperature; read-out: mGluR5 Ligand Binding DR Ki. A digest of the protocol: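 Membranes from HEK-293 cells expressing rat mGluR5 incubated 60 min at room temperature in 50 mM Tris pH 7.5 with 4 nM [3H]-MPEP; 10 μM MPEP defines non-specific binding; filtration read-out. Single-point % inhibition at 10 μM, then Ki from IC50 via Cheng-Prusoff for actives.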

T1 sequence (P31424 21-1203): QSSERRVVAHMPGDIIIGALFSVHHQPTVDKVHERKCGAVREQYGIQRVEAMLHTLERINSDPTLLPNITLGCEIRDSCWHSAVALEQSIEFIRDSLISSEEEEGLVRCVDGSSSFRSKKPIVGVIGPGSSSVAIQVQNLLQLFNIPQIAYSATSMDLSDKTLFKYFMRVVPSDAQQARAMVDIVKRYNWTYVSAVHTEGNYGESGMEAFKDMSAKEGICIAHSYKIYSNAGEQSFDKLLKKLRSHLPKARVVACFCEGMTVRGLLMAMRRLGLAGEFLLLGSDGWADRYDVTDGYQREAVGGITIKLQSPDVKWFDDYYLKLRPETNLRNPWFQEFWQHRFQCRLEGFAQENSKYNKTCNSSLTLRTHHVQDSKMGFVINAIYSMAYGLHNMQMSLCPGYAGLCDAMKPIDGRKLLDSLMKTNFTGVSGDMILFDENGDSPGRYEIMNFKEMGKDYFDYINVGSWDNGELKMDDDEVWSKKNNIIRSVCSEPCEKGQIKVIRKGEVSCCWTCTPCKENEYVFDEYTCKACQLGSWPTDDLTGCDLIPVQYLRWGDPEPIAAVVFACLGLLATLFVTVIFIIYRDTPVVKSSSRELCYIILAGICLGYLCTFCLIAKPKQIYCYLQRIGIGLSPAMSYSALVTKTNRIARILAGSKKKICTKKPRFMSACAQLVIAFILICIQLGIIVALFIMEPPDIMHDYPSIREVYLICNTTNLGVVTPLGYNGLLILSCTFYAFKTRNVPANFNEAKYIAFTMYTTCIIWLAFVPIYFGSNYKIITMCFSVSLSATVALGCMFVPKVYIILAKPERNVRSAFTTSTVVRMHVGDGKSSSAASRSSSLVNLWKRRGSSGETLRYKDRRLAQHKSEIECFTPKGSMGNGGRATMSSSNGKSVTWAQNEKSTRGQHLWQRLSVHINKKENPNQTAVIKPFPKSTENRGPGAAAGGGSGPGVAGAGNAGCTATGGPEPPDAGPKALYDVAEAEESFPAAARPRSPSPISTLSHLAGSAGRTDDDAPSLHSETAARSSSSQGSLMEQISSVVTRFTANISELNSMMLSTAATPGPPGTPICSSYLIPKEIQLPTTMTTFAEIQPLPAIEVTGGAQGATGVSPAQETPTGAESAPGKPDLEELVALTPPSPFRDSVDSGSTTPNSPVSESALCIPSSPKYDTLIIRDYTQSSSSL
T2 sequence (P31424 21-1203): as above

For `O=C(c1ccc(Cl)c(C#Cc2ccccn2)c1)N1CCc2ccccc2C1` [Example 61, 2-[4-Chloro-3-(pyridin-2-ylethynyl)benzoyl]-1,2,3,4-tetrahydroisoquinoline], the 50% inhibitory concentration (IC50) in experiment [1] stood at 13 nM. At rat mGluR5 receptor, the Ki is 0.4 nM.
For `O=C(c1ccc(Cl)c(C#Cc2ccccn2)c1)N1CCc2cccnc2C1` [Example 62, 7-{[4-chloro-3-(pyridin-2-ylethynyl)phenyl]carbonyl}-5,6,7,8-tetrahydro-1,7-naphthyridine], in that order: 9 nM and 5 nM.
For `O=C(c1ccc(Cl)c(C#Cc2ccccn2)c1)N1CCc2c(F)ccc(F)c2C1` [Example 63, 2-{[4-chloro-3-(pyridin-2-ylethynyl)phenyl]carbonyl}-5,8-difluoro-1,2,3,4-tetrahydroisoquinoline], in that order: 14 nM and 0.2 nM.
In the case of `O=C(c1ccc(Cl)c(C#Cc2ccccn2)c1)N1CCc2c(F)cccc2C1` [Example 64, 2-{[4-chloro-3-(pyridin-2-ylethynyl)phenyl]carbonyl}-5-fluoro-1,2,3,4-tetrahydroisoquinoline], the IC50 in experiment [1] was 16 nM. Besides, the Ki on rat mGluR5 receptor came out at 0.4 nM.
For `O=C(c1ccc(Cl)c(C#Cc2ccccn2)c1)N1Cc2cccnc2C1` [Example 65, 6-{[4-chloro-3-(pyridin-2-ylethynyl)phenyl]carbonyl}-6,7-dihydro-5H-pyrrolo[3,4-b]pyridine], the IC50 in experiment [1] turned out to be 18 nM. Besides, the Ki at rat mGluR5 receptor was determined as 3 nM.
Regarding `O=C(c1ccc(Cl)c(C#Cc2ccccn2)c1)N1CCc2[nH]ncc2C1` [Example 66, 5-{[4-chloro-3-(pyridin-2-ylethynyl)phenyl]carbonyl}-4,5,6,7-tetrahydro-1H-pyrazolo[4,3-c]pyridine], in experiment [1], the IC50 was determined as 11 nM. For the same compound, the Ki on rat mGluR5 receptor was 4 nM.
Turning to `O=C(c1ccc(Cl)c(C#Cc2ccccn2)c1)N1CCc2[nH]cnc2C1` [Example 67, 5-{[4-chloro-3-(pyridin-2-ylethynyl)phenyl]carbonyl}-4,5,6,7-tetrahydro-1H-imidazo[4,5-c]pyridine], the IC50 in experiment [1] stood at 27 nM. Moreover, the Ki on rat mGluR5 receptor stood at 16 nM.
On to `O=C(c1ccc(Cl)c(C#Cc2ccccn2)c1)N1CCc2ncccc2C1` [Example 68, 6-{[4-chloro-3-(pyridin-2-ylethynyl)phenyl]carbonyl}-5,6,7,8-tetrahydro-1,6-naphthyridine], for which the IC50 in experiment [1] turned out to be 26 nM. In addition, the Ki on rat mGluR5 receptor worked out at 4 nM.
As to `O=C(c1ccc(Cl)c(C#Cc2ccccn2)c1)N1CCc2c(Cl)cccc2C1` [Example 69, 5-chloro-2-{[4-chloro-3-(pyridin-2-ylethynyl)phenyl]carbonyl}-1,2,3,4-tetrahydroisoquinoline], the IC50 in experiment [1] is 134 nM. Besides, on rat mGluR5 receptor, the Ki was found to be 0.1 nM.
For `O=C(c1ccc(Cl)c(C#Cc2ccccn2)c1)N1CCc2ccc(F)cc2C1` [Example 70, 2-{[4-chloro-3-(pyridin-2-ylethynyl)phenyl]carbonyl}-7-fluoro-1,2,3,4-tetrahydroisoquinoline], in that order: 37 nM and 0.4 nM.
For the compound `O=C(c1ccc(F)c(C#Cc2ccccn2)c1)N1CCc2ccccc2C1` [Example 71, 2-[4-Fluoro-3-(pyridin-2-ylethynyl)benzoyl]-1,2,3,4-tetrahydroisoquinoline], the half-inhibitory concentration (IC50) in experiment [1] is 67 nM. Also, the Ki on rat mGluR5 receptor was 5 nM.
For the compound `O=C(c1ccc(F)c(C#Cc2ccccn2)c1)N1CCc2ccc(Cl)cc2C1` [Example 72, 7-chloro-2-[4-fluoro-3-(pyridin-2-ylethynyl)benzoyl]-1,2,3,4-tetrahydroisoquinoline], the IC50 in experiment [1] was 29 nM. Moreover, on rat mGluR5 receptor, the Ki worked out at 2 nM.
Take `O=C(c1ccc(F)c(C#Cc2ccccn2)c1)N1CCc2c(Cl)cccc2C1` [Example 73, 5-chloro-2-[4-fluoro-3-(pyridin-2-ylethynyl)benzoyl]-1,2,3,4-tetrahydroisoquinoline]: in experiment [1], the IC50 came to 40 nM. Moreover, the Ki on rat mGluR5 receptor was found to be 1 nM.
`O=C(c1ccc(F)c(C#Cc2ccccn2)c1)N1Cc2ccccc2C1` [Example 74, 2-[4-fluoro-3-(pyridin-2-ylethynyl)benzoyl]isoindoline]: the IC50 in experiment [1] was found to be 62 nM. For the same compound, the Ki on rat mGluR5 receptor was found to be 11 nM.
Take `CCOc1ccc(C(=O)N2CCc3ccccc3C2)cc1C#Cc1ccccn1` [Example 75, 2-[4-Ethoxy-3-(pyridin-2-ylethynyl)benzoyl]-1,2,3,4-tetrahydroisoquinoline]: the half-inhibitory concentration (IC50) in experiment [1] worked out at 11 nM. For the same compound, at rat mGluR5 receptor, the Ki amounted to 3 nM.
Take `CCOc1ccc(C(=O)N2CCc3ccc(Cl)cc3C2)cc1C#Cc1ccccn1` [Example 76, 7-chloro-2-[4-ethoxy-3-(pyridin-2-ylethynyl)benzoyl]-1,2,3,4-tetrahydroisoquinoline]: the IC50 in experiment [1] is 42 nM. Moreover, the Ki on rat mGluR5 receptor was determined as 1 nM.
For `CCOc1ccc(C(=O)N2CCc3c(Cl)cccc3C2)cc1C#Cc1ccccn1` [Example 77, 5-chloro-2-[4-ethoxy-3-(pyridin-2-ylethynyl)benzoyl]-1,2,3,4-tetrahydroisoquinoline], in that order: 41 nM and 1 nM.
Consider `CCOc1ccc(C(=O)N2Cc3ccccc3C2)cc1C#Cc1ccccn1` [Example 78, 2-[4-ethoxy-3-(pyridin-2-ylethynyl)benzoyl]isoindoline], for which, in experiment [1], the IC50 came to 12 nM. The Ki at rat mGluR5 receptor is 5 nM.
On to `O=C(c1ccc(OCC2CC2)c(C#Cc2ccccn2)c1)N1CCc2ccccc2C1` [Example 79, 2-{[4-(Cyclopropylmethoxy)-3-(pyridin-2-ylethynyl)phenyl]carbonyl}-1,2,3,4-tetrahydroisoquinoline], for which the IC50 in experiment [1] was 34 nM. Moreover, on rat mGluR5 receptor, the Ki is 23 nM.
For `Cc1ccc(C(=O)N2Cc3ccccc3C2)cc1C#Cc1ccccn1` [Example 81, 2-[4-Methyl-3-(pyridin-2-ylethynyl)benzoyl]isoindoline], in that order: 26 nM and 1 nM.
Regarding `Cc1ccc(C(=O)N2CCc3ccccc3C2)cc1C#Cc1ccccn1` [Example 82, 2-[4-Methyl-3-(pyridin-2-ylethynyl)benzoyl]-1,2,3,4-tetrahydroisoquinoline], the IC50 in experiment [1] stood at 27 nM. Further, the Ki at rat mGluR5 receptor worked out at 1 nM.
Turning to `Cc1ccc(C(=O)N2CCc3ccc(Cl)cc3C2)cc1C#Cc1ccccn1` [Example 83, 7-chloro-2-[4-methyl-3-(pyridin-2-ylethynyl)benzoyl]-1,2,3,4-tetrahydroisoquinoline], the IC50 in experiment [1] was 30 nM. Besides, at rat mGluR5 receptor, the Ki worked out at 0.3 nM.
For `Cc1ccc(C(=O)N2CCc3c(Cl)cccc3C2)cc1C#Cc1ccccn1` [Example 84, 5-chloro-2-[4-methyl-3-(pyridin-2-ylethynyl)benzoyl]-1,2,3,4-tetrahydroisoquinoline], in that order: 48 nM and 0.3 nM.
For `Cc1ccc(C(=O)N2CCc3ncccc3C2)cc1C#Cc1ccccn1` [Example 85, 6-{[4-Methyl-3-(pyridin-2-ylethynyl)phenyl]carbonyl}-5,6,7,8-tetrahydro-1,6-naphthyridine], in that order: 6 nM and 4 nM.
`Cc1ccc(C(=O)N2CCc3cccnc3C2)cc1C#Cc1ccccn1` [Example 86, 7-{[4-Methyl-3-(pyridin-2-ylethynyl)phenyl]carbonyl}-5,6,7,8-tetrahydro-1,7-naphthyridine]: in experiment [1], the IC50 was found to be 8 nM. In addition, at rat mGluR5 receptor, the Ki amounted to 11 nM.
For `Cc1ccc(C(=O)N2CCc3nc[nH]c3C2)cc1C#Cc1ccccn1` [Example 87, 5-{[4-methyl-3-(pyridin-2-ylethynyl)phenyl]carbonyl}-4,5,6,7-tetrahydro-3H-imidazo[4,5-c]pyridine], in that order: 2 nM and 14 nM.
In the case of `Cc1ccc(C(=O)N2CCc3[nH]ncc3C2)cc1C#Cc1ccccn1` [Example 88, 5-{[4-methyl-3-(pyridin-2-ylethynyl)phenyl]carbonyl}-4,5,6,7-tetrahydro-1H-pyrazolo[4,3-c]pyridine], the concentration for half-maximal inhibition (IC50) in experiment [1] turned out to be 4 nM. The Ki at rat mGluR5 receptor worked out at 6 nM.
As for `Cc1nc2c(s1)CN(C(=O)c1ccc(C)c(C#Cc3ccccn3)c1)CC2` [Example 89, 2-methyl-5-{[4-methyl-3-(pyridin-2-ylethynyl)phenyl]carbonyl}-4,5,6,7-tetrahydro[1,3]thiazolo[5,4-c]pyridine], the IC50 in experiment [1] worked out at 4 nM. On rat mGluR5 receptor, the Ki amounted to 4 nM.

One may read the IC50 as the concentration that gives 50% inhibition. The Ki is the equilibrium dissociation constant of an inhibitor or competing ligand from its target.
